Calls of active or inactive are those of the source. The calls are words filed in the database; no cut-off is given here.
What was measured:
MV4-11 [1] = experiment: Antitumor activity against human MV4-11 cells xenografted in BALB/c nude mouse assessed as tumor growth inhibition at 180 microg/kg/day, IG measured everyday for 11 days relative to control; format: functional; conditions: MV4-11, po, 264 h, at 180 µg/kg/day, time 11 day, read-out: TGI
[2] = Cmax in Sprague-Dawley rat at 1.0 mg/kg, po administered via oral gavage and measured upto 24 hrs by LC-MS/MS analysis; format: ADME, organism-based; parameters: dose 1 mg/kg, time < 24 hrs, route po; conditions: in vivo
THP-1 [3] = experiment: Antiproliferative activity against human THP-1 cells assessed as inhibition of cell growth measured after 48 hrs by CCK8 assay; format: functional, cell-based; conditions: THP-1, 48 h
[4] = Tmax in Sprague-Dawley rat at 1.0 mg/kg, po administered via oral gavage and measured upto 24 hrs by LC-MS/MS analysis; format: ADME, organism-based; conditions: in vivo
[5] = AUC (0 to t) in Sprague-Dawley rat at 1.0 mg/kg, po administered via oral gavage and measured upto 24 hrs by LC-MS/MS analysis; format: ADME, organism-based; parameters: dose 1 mg/kg, time < 24 hrs, route po; conditions: in vivo
MV4-11 [6] = experiment: Antiproliferative activity against human MV4-11 cells assessed as cell growth inhibition measured after 48 hrs by CCK8 assay; format: functional, cell-based; conditions: MV4-11, 48 h
MV4-11 [7] = experiment: Antitumor activity against human MV4-11 cells xenografted in BALB/c nude mouse assessed as tumor growth inhibition at 1 mg/kg, po measured once every 2 days for 20 days relative to control; format: functional; conditions: MV4-11, 480 h, time 20 day, read-out: TGI
MV4-11 [8] = experiment: Antitumor activity against human MV4-11 cells xenografted in BALB/c nude mouse assessed as tumor growth inhibition at 0.5 mg/kg, po measured once every 2 days for 20 days relative to control; format: functional; conditions: MV4-11, 480 h, time 20 day, read-out: TGI
[9] = Aqueous solubility of compound at 1 to 10 mg/ml by HPLC analysis; format: physicochemical; conditions: water; dose 1-10 mg/ml
[10] = Chemical stability of the compound in water assessed as parent compound remaining at 2 mg/ml measured after 4 hrs by HPLC analysis; format: physicochemical; conditions: read-out: Stability
[11] = Prodrug conversion in Sprague-Dawley rat plasma assessed as triptolide release at 50 ug/ml measured after 30 mins by HPLC analysis; format: ADME, cell-free; conditions: 0.5 h, dose 50 µg/ml
[12] = Chemical stability of the compound in water assessed as parent compound remaining at 2 mg/ml measured immediately by HPLC analysis; format: physicochemical; conditions: read-out: Stability
MV4-11 [13] = experiment: Potency index, ratio of test compound IC50 to triptolide IC50 for antiproliferative activity against human MV4-11 cells assessed as inhibition of cell growth measured after 48 hrs by CCK8 assay; format: functional
MV4-11 [14] = experiment: Antitumor activity against human MV4-11 cells xenografted in BALB/c nude mouse assessed as tumor growth inhibition at 25 microg/kg, ip qd measured every 2 days for 28 days relative to control; format: functional; conditions: MV4-11, 672 h, dose 25 µg/kg, time 28 day, read-out: TGI
THP-1 [15] = experiment: Antitumor activity against human THP-1 cells xenografted in BALB/c nude mouse assessed as cell growth inhibition by measuring effect on Ki67 protein expression in tumor at 0.1 mg/kg, ip administered daily and measured after 28 days by immunohistochemical analysis; format: functional, organism-based; conditions: time 28.0 day
MV4-11 [16] = experiment: Antitumor activity against human MV4-11 cells xenografted in BALB/c nude mouse assessed as complete tumor regression at 100 microg/kg, ip qd measured every 2 days for 12 days; format: functional, organism-based; conditions: dose 100.0 µg/kg, time 12.0 day
[17] = Prodrug conversion in human plasma assessed as triptolide release at 500 ng/ml measured after 1 hrs by UPLC-MS/MS analysis; format: ADME, cell-free
MV4-11 [18] = experiment: Antitumor activity against human MV4-11 cells xenografted in ip dosed BALB/c nude mouse assessed as cell growth inhibition by measuring effect on Ki67 protein expression in tumor administered daily and measured after 28 days by immunohistochemical analysis; format: functional, organism-based; conditions: dose 25-50 µg/kg, time 28.0 day
MV4-11 [19] = experiment: Antitumor activity against human MV4-11 cells xenografted in BALB/c nude mouse assessed as cell growth inhibition by measuring effect on Ki67 protein expression in tumor at 50 microg/kg, ip administered for 20 days in presence of gilteritinib by immunohistochemical analysis; format: functional, organism-based; conditions: dose 50.0 µg/kg, time 20.0 day
MV4-11 [20] = experiment: Antitumor activity against human MV4-11 cells xenografted in ip dosed BALB/c nude mouse assessed as induction of apoptosis by measuring increase in cleaved caspase-3 level in tumor administered daily and measured after 28 days by immunohistochemical staining based analysis; format: functional, organism-based; conditions: dose 25-50 µg/kg, time 28.0 day
[21] = Prodrug conversion in human plasma assessed as (5bS,6aS,7aR,8R,8aS,9aS,9bS,10bS)-8a-isopropyl-10b-methyl-3-oxo-1,2,3,5,5b,6,6a,8,8a,9a,9b,10b-dodecahydrotris(oxireno [2',3':4b,5;2'',3'':6,7;2''',3''':8a,9]phenanthro[1,2-c]furan-8-yl 2-hydroxyacetate intermediate formation measured after 1 hr by HPLC analysis; format: ADME, cell-free
THP-1 [22] = experiment: Antitumor activity against human THP-1 cells xenografted in BALB/c nude mouse assessed as tumor growth inhibition at 100 microg/kg, ip qd measured every 2 days for 28 days relative to control; format: functional; conditions: THP-1, 672 h, dose 100 µg/kg, time 28 day, read-out: TGI
PBMC = experiment: Cytotoxicity against human PBMC cells assessed as cell survial at 30 to 300 nM measured after 48 hrs by CCK8 assay; format: toxicity, cell-based; conditions: 0.3 µM, dose 30-300 nM
[23] = Microsomal stability in rat liver microsomes assessed as intrinsic clearance; format: ADME, Microsome; conditions: read-out: CLH
THP-1 [24] = experiment: Antiproliferative activity against human THP-1 cells assessed as cell growth inhibition measured after 24 hrs by Edu incorporation assay; format: functional, cell-based; conditions: dose 30-120 nM
[25] = Prodrug conversion in human plasma assessed as (5bS,6aS,7aR,8R,8aS,9aS,9bS,10bS)-8a-isopropyl-10b-methyl-3-oxo-1,2,3,5,5b,6,6a,8,8a,9a,9b,10b-dodecahydrotris(oxireno [2',3':4b,5;2'',3'':6,7;2''',3''':8a,9]phenanthro[1,2-c]furan-8-yl 2-hydroxyacetate intermediate formation by HPLC analysis; format: ADME, cell-free
[26] = Toxicity in BALB/c nude mouse xenografted with human THP-1 cells assessed as animal death at 2.4 to 4.8 mg/kg, ip qd measured after 2 to 3 days; format: organism-based; conditions: in vivo, dose lower 2.4 mg/kg, time lower 2 day, dose upper 4.8 mg/kg, time upper 3 day
THP-1 [27] = experiment: Potency index, ratio of test compound IC50 to triptolide IC50 for antiproliferative activity against human THP-1 cells assessed as inhibition of cell growth measured after 48 hrs by CCK8 assay; format: functional
[28] = Prodrug conversion in human plasma assessed as triptolide release at 50 ug/ml measured after 45 mins by HPLC analysis; format: ADME, cell-free; conditions: 0.75 h, dose 50 µg/ml
[29] = Microsomal stability in rat liver microsomes assessed as hepatic clearance; format: ADME, Microsome
THP-1 [30] = experiment: Antitumor activity against human THP-1 cells xenografted in BALB/c nude mouse assessed as complete tumor regression at 300 microg/kg, ip qd measured every 2 days for 16 days; format: functional, organism-based; conditions: dose 300.0 µg/kg, time 16.0 day
THP-1 [31] = experiment: Antitumor activity against human THP-1 cells xenografted in BALB/c nude mouse assessed as induction of apoptosis by measuring increase in cleaved caspase-3 level in tumor at 0.1 mg/kg, ip administered daily and measured after 28 days by immunohistochemical staining based analysis; format: functional, organism-based; conditions: time 28.0 day
[32] = Prodrug conversion in human plasma assessed as triptolide release at 50 to 5000 ng/ml measured for 1 hrs by HPLC analysis; format: ADME, cell-free; conditions: dose 50-5000 ng/ml
[33] = Prodrug conversion in human plasma assessed as triptolide release at 1 mg/ml measured after 1 hrs by HPLC analysis; format: ADME, cell-free
[34] = Toxicity in BALB/c nude mouse xenografted with human THP-1 cells assessed as change in body weight at 0.1 to 1.2 mg/kg, ip qd measured every 2 days for 28 days; format: organism-based; conditions: in vivo, 672 h, dose 0.1-1.2 mg/kg, time 28 day
[35] = Toxicity in BALB/c nude mouse xenografted with human MV4-11 cells assessed as change in body weight at 180 microg/kg/day, IG measured everyday for 11 days; conditions: in vivo, po, 264 h, dose 180 µg/kg/day, time 11 day
MV4-11 [36] = experiment: Antitumor activity against human MV4-11 cells xenografted in BALB/c nude mouse assessed as tumor growth inhibition at 50 microg/kg, ip administered for 20 days in presence of gilteritinib and measured every 2 days relative to control; format: functional; conditions: MV4-11, 480 h, dose 50 µg/kg, time 20 day, read-out: TGI
[37] = Microsomal stability in rat liver microsomes assessed as half life; format: ADME, Microsome
MV4-11 [38] = experiment: Antiproliferative activity against human MV4-11 cells assessed as cell growth inhibition measured after 24 hrs by Edu incorporation assay; format: functional, cell-based
MV4-11 [39] = experiment: Antitumor activity against human MV4-11 cells xenografted in BALB/c nude mouse assessed as tumor growth inhibition at 300 microg/kg/day, IG measured everyday for 11 days relative to control; format: functional; conditions: MV4-11, po, 264 h, at 300 µg/kg/day, time 11 day, read-out: TGI
[40] = Prodrug conversion in Sprague-Dawley rat plasma assessed as triptolide release at 500 ng/ml measured after 1 hrs by UPLC-MS/MS analysis; format: ADME, cell-free
MV4-11 [41] = experiment: Antitumor activity against human MV4-11 cells xenografted in BALB/c nude mouse assessed as induction of apoptosis by measuring caspase-3 level in tumor at 50 microg/kg, ip administered for 20 days in presence of gilteritinib by immunohistochemical analysis; format: functional, organism-based; conditions: dose 50.0 µg/kg, time 20.0 day

Compound: CC(C)[C@]12O[C@H]1[C@@H]1O[C@]13[C@]1(O[C@H]1C[C@H]1C4=C(CC[C@@]13C)C(=O)OC4)[C@@H]2O [TRIPTOLIDE]
- inhibition in vivo at 0.18 mg/kg/day (MV4-11 [1]): 91.5%
- Cmax [2]: 15.9 ng/mL
- IC50 (THP-1 [3]): 7.04 nM
- Tmax [4]: 26.4 min
- AUC(0-t) at 24 h [5]: 31.9 ng·h/mL
- IC50 (MV4-11 [6]): 12 nM

Compound: CCc1nc(C(N)=O)c(Nc2ccc(N3CCC(N4CCN(C)CC4)CC3)c(OC)c2)nc1NC1CCOCC1 [GILTERITINIB]
- inhibition in vivo at 1 mg/kg (MV4-11 [7]): 72%
- inhibition in vivo at 0.5 mg/kg (MV4-11 [8]): 48.3%

Compound: CC(C)[C@]12O[C@H]1[C@@H]1O[C@]13[C@]1(O[C@H]1C[C@H]1C4=C(CC[C@@]13C)C(=O)OC4)[C@@H]2OC(=O)COC(=O)CN1CCN(C)CC1.Cl
- solubility [9]: 3820 µg/mL
- remaining at 4 h, 2 mg/ml [10]: 96.7%
- Drug metabolism [11]: Metabolite_Detected
- remaining at 0 h, 2 mg/ml [12]: 96.8%

Compound: CC(C)[C@]12O[C@H]1[C@@H]1O[C@]13[C@]1(O[C@H]1C[C@H]1C4=C(CC[C@@]13C)C(=O)OC4)[C@@H]2OC(=O)COC(=O)CN1CCOCC1.Cl
- Ratio IC50 (MV4-11 [13]): 2
- solubility [9]: 6130 µg/mL
- inhibition in vivo at 0.025 mg/kg (MV4-11 [14]): 54.3%
- Activity (THP-1 [15]): Active
- Activity (MV4-11 [16]): Active
- Drug metabolism [17]: Metabolite_Detected
- remaining at 4 h, 2 mg/ml [10]: 99.1%
- Activity (MV4-11 [18]): Dose-Dependent Effect
- Activity (MV4-11 [19]): Active
- Activity (MV4-11 [20]): Dose-Dependent Effect
- Drug metabolism [21]: Metabolite_Notdetected
- inhibition in vivo at 0.1 mg/kg (THP-1 [22]): 93.9%
- Activity (PBMC): Non-Toxic
- CLint scaled [23]: 288 mL/min/kg
- Activity (THP-1 [24]): Dose-Dependent Effect
- Drug metabolism [25]: Metabolite_Detected
- Drug metabolism [11]: Metabolite_Detected
- Activity [26]: Toxic
- Ratio IC50 (THP-1 [27]): 2
- Drug metabolism [28]: Metabolite_Detected
- IC50 (THP-1 [3]): 14.8 nM
- CLhep predicted [29]: 65.6 mL/min/kg
- Activity (THP-1 [30]): Active
- Activity (THP-1 [31]): Active
- Drug metabolism [32]: Metabolite_Detected
- Drug metabolism [33]: Metabolite_Detected
- Activity [34]: Non-Toxic
- Activity [35]: Non-Toxic
- inhibition in vivo at 0.05 mg/kg (MV4-11 [36]): 78.1%
- half-life [37]: 8.64 min
- remaining at 0 h, 2 mg/ml [12]: 99.4%
- Activity (MV4-11 [38]): Dose-Dependent Effect
- inhibition in vivo at 0.3 mg/kg/day (MV4-11 [39]): 93.5%
- Drug metabolism [40]: Metabolite_Detected
- IC50 (MV4-11 [6]): 46 nM
- Activity (MV4-11 [41]): Active
